# Target: T1, HIF-PH2 (Homo sapiens, UniProt Q9GZT9)
# T1 construct: made in house; host or cells: insect Hi5 cells
# Test: HIF-PH assay (14CO2 capture, peptide-dependent turnover)
# Format: biochemical
# Conditions: for inhibition at 200 µM: compound concentration 200 μM; for inhibition at 22.22 µM: compound concentration 22.22 μM
# From the text: Ketoglutaric acid α-[1-^14C]-sodium salt, alpha-ketoglutaric acid sodium salt, and HPLC purified peptide may be obtained from commercial sources, e.g., Perkin-Elmer (Wellesley Mass.), Sigma-Aldrich, and SynPep Corp. (Dublin Calif.), respectively. Peptides for use in the assay may be fragments of HIFα as described above or as disclosed in International Publication WO 2005/118836, incorporated by reference herein. For example, a HIF peptide for use in the HIF-PH assay is [methoxycoumarin]-DLDLEALAPYIPADDDFQL-amide. HIF-PH, e.g., HIF-PH2 (EGLN1), can be expressed in, e.g., insect Hi5 cells, and partially purified, e.g., through a SP ion exchange chromatography column. Enzyme activity is determined by capturing ^14CO2 using an assay described by Kivirikko and Myllyla (1982, Methods Enzymol. 82:245-304). Assay reactions contain 50 mM HEPES (pH 7.4), 100 μM α-ketoglutaric acid sodium salt, 0.30 μCi/mL ketoglutaric acid α-[1-^14C]-sodium salt, 40 μM FeSO4, 1 mM ascorbate, 1541.8 units/mL Catalase, with or without 50 μM peptide substrate and various concentrations of compound of the invention. Reactions are initiated by addition of HIF-PH enzyme.
# The peptide-dependent percent turnover is calculated by subtracting percent turnover in the absence of peptide from percent turnover in the presence of substrate peptide. Percent inhibition and IC50 are calculated using peptide-dependent percent turnover at given inhibitor concentrations. Calculation of IC50 values for each inhibitor is conducted using GraFit software (Erithacus Software Ltd., Surrey UK).
# Representative compounds of the invention were analyzed using the HIF-PH assay described above. Table I below presents enzyme inhibition data for exemplary compounds against HIF-PH2, a representative HIF prolyl hydroxylase enzyme. By inhibiting HIF prolyl hydroxylase enzymes, compounds of the invention stabilize HIFα, which then combines with HIFβ to form an active transcription factor that increases expression of various genes involved in numerous beneficial cellular processes.
# T1 sequence (Q9GZT9 whole entry, species assumed): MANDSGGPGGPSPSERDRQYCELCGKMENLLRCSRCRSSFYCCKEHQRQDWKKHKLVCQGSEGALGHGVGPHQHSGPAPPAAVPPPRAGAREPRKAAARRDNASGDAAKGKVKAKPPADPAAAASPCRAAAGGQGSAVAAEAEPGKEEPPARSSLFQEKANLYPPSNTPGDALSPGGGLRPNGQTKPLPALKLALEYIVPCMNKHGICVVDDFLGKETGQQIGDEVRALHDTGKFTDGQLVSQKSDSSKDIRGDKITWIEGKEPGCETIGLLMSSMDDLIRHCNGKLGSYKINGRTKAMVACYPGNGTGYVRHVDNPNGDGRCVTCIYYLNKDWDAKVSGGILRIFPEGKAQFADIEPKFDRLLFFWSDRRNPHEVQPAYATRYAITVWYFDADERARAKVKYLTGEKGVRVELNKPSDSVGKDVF
structure (smiles),measurement,value
"CC(=O)c1nc(C(=O)NCC(=O)O)c(O)c2c(-c3ccc(Cl)cc3)nsc12 [Example 25, {[7-Acetyl-3-(4-chloro-phenyl)-4-hydroxy-isothiazolo[5,4-c]pyridine-5-carbonyl]-amino}-acetic acid]",inhibition at 200 µM,100%
"O=C(O)CNC(=O)c1ncc2snc(-c3ccccc3)c2c1O [Example 43, [(4-Hydroxy-3-phenyl-isothiazolo[5,4-c]pyridine-5-carbonyl)-amino]-acetic acid]",inhibition at 22.22 µM,97%
"COc1ccc(-c2nc(C(=O)NCC(=O)O)c(O)c3c(-c4ccccc4)nsc23)cc1 [Example 2, {[4-Hydroxy-7-(4-methoxy-phenyl)-3-phenyl-isothiazolo[5,4-c]pyridine-5-carbonyl]-amino}-acetic acid]",inhibition at 200 µM,97.9%
"Cc1nsc2c(O)c(C(=O)NCC(=O)O)nc(-c3cnccn3)c12 [Example 41, [(7-Hydroxy-3-methyl-4-pyrazin-2-yl-isothiazolo[4,5-c]pyridine-6-carbonyl)-amino]-acetic acid]",inhibition at 22.22 µM,98%
"Cc1nc(C(=O)NCC(=O)O)c(O)c2c(-c3ccc(Cl)cc3)nsc12 [Example 15, {[3-(4-Chloro-phenyl)-4-hydroxy-7-methyl-isothiazolo[5,4-c]pyridine-5-carbonyl]-amino}-acetic acid]",inhibition at 200 µM,99.5%

# From patent US9387200B2, “Isothiazole-pyridine derivatives as modulators of HIF (hypoxia inducible factor) activity” (FibroGen, Inc., priority 2008, dated 2016)
